{"source": "paper PMC9481570", "about": "“A small molecule antagonist of SMN disrupts the interaction between SMN and RNAP II” (Nature Communications, 2022)", "target": "T1, SMN Tudor domain (Homo sapiens, UniProt Q16637)", "T1 construct": "SMN (aa 82–147); His (N, cleaved yes); made in house; host or cells: E. coli BL21 (DE3) Codon plus RIL", "T1 sequence (Q16637 82-147)": "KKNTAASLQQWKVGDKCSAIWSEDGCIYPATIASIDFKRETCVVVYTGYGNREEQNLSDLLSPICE", "assay": "ITC binding to Tudor domain of SMN", "text": "The coding DNA fragments of following Tudor domains were cloned into pET28-MHL vector: SMN (aa 82–147), UHRF1 (aa 126–285), SMNDC1 (aa 53–130), TDRD3 (aa 554–611), SND1 (aa 650–910), TDRD2 (aa 327–420), FXR1 (aa 2–132), PHF1 (aa 28–87), SGF29 (aa 115–293), JMJD2A (aa 897–1101), 53BP1 (aa 1483–1606), SETDB1 (aa 190–410), LBR (aa 1–67), ZGPAT (aa 120–271). The coding regions of chromodomain of CBX7 (aa 8–62), PWWP domain of DNMT3A (aa 275–417), WD40 repeats of WDR5 (aa 24–334) and CW domain of ZCWPW2 (aa 21–78) were also subcloned into pET28-MHL vector to generate N-terminally His-tagged fusion protein. The MBT repeats of L3MBTL1 (aa 200–522) and L3MBTL2 (aa 170–625) were subcloned into pET28GST-LIC vector to generate N-terminally GST-His-tagged fusion protein. All the plasmids were generated by ligase independent cloning (Vazyme Biotech, C112 or ABclonal Technology, RK21020). […] The proteins were further purified by Superdex75 or Superdex200 gel-filtration column (GE Healthcare) in a buffer containing 20 mM Tris-HCl, pH 7.5, 150 mM NaCl and 1 mM DTT. For crystallization experiments, purified proteins were concentrated to 18 mg/mL for SMN, 23 mg/mL for UHRF1 and 10 mg/mL for TDRD3 in the gel-filtration buffer. All the mutations were introduced with the QuikChange II XL site-directed mutagenesis kit (Stratagene, 200522) and confirmed by DNA sequencing. Mutant proteins were also expressed in E. coli BL21 (DE3) Codon plus RIL and purified using the same procedures described above. The molecular weight of all protein samples was measured by mass spectrometry.\nFor the ITC measurement, the concentrated proteins were diluted into 20 mM Tris-HCl, pH 7.5, 150 mM NaCl (ITC buffer); the lyophilized compounds were dissolved in the same buffer, and the pH value was adjusted by adding 2 M NaOH or 2 M HCl. The compounds that could not be dissolved in the ITC buffer were dissolved in DMSO with the accessible highest concentration. Compound concentrations were calculated from the mass and the volume of the solvent. For the ITC assay with compound dissolved in DMSO, the protein was diluted by ITC buffer containing same final concentration of DMSO. All measurements were performed in duplicate at 25 °C, using a VP-ITC (MicroCal, Inc.), an iTC-200 (MicroCal, Inc.), or a Nano-ITC (TA, Inc.) microcalorimeter. The protein with a concentration of 50–100 μM was placed in the cell chamber, and the compounds with a concentration of 0.5–2 mM in syringe was injected in 25, 20, or 20 successive injections with a spacing of 180, 150, or 120 s for VP-ITC, iTC-200, or Nano-ITC, respectively, as previously described[30]–[32]. iTC-200 or Nano-ITC data were consistent with those from the VP-ITC instrument, based on ITC results of SMN-compound 1 detected by using all the instruments. Control experiments were performed under identical conditions to determine the heat signals that arise from injection of the compounds into the buffer. Data were fitted using the single-site binding model within the Origin software 7.0 package (MicroCal, Inc.) or the independent model within the Nano-Analyze software package (TA, Inc.).", "key": {"[1]": {"conditions": "ITC, Tudor domain of SMN wild type, 25 °C, read-out: Kd (SMN)"}}, "note": "Like-named read-outs stand apart in the source and are kept apart here."}
{"compound": "CCCn1c2c(c(=N)c3c1CCC3)CCC2", "note": "[Compound 2, 4-propyl-2,3,4,5,6,7-hexahydrodicyclopenta[b,e]pyridin-8(1H)-imine]", "values": [{"measurement": "Kd", "setting": "[1]", "value": "9.3 ± 0.6", "unit": "µM"}]}
{"compound": "Cn1c2c(c(=N)c3c1CCC3)CCC2", "note": "[Compound 1, 4-methyl-2,3,4,5,6,7-hexahydrodicyclopenta[b,e]pyridin-8(1H)-imine]", "values": [{"measurement": "Kd", "setting": "[1]", "value": "2.6 ± 0.1", "unit": "µM"}, {"measurement": "Kd", "setting": "Supplementary Fig. 11a, iTC-200, read-out: Kd, ITC binding curve, SMN", "value": "3.9 ± 0.5", "unit": "µM"}, {"measurement": "selectivity of SMN and SMNDC1 Tudor domains over TDRD3", "setting": "from ITC Kd", "value": "~ 4 fold"}, {"measurement": "selectivity over other tested methyllysine or methylarginine binding domains", "setting": "from ITC Kd", "value": "> 4", "unit": "fold"}, {"measurement": "SMN binds more tightly than its physiological ligands", "setting": "versus symmetric dimethylarginine or R1810me2s-POLR2A", "value": "60–180 fold"}]}
